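Following 48 hours of exposure in 96-well plates, responses at five concentrations were used to interpolate endpoints linearly. GI50: concentration for 50% inhibition of growth.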 Calls of active or inactive are those of the source. Cut-off read from the data, not from the text of the source: active = GI50 up to about 1.1 µM and inactive = higher.
Legend:
Test in all cases: DTP human tumour cell line panel, 48 h
A549 = system: A549
SW-620 = system: SW-620
SR = system: SR
COLO 205 = system: COLO 205
HOP-62 = system: HOP-62
NCI-H226 = system: NCI-H226
BT-549 = system: BT-549
IGROV-1 = system: IGROV-1
RXF 393 = system: RXF 393
OVCAR-5 = system: OVCAR-5
HCC 2998 = system: HCC 2998
RPMI-8226 = system: RPMI-8226
LOX IMVI = system: LOX IMVI
SN12C = system: SN12C
NCI-H460 = system: NCI-H460
SNB-19 = system: SNB-19
CCRF-CEM = system: CCRF-CEM
HOP-92 = system: HOP-92
A498 = system: A498

| Compound | GI50 (A549) | GI50 (SW-620) | GI50 (SR) | GI50 (COLO 205) | GI50 (HOP-62) | GI50 (NCI-H226) | GI50 (BT-549) | GI50 (IGROV-1) | GI50 (RXF 393) | GI50 (OVCAR-5) | GI50 (HCC 2998) | GI50 (RPMI-8226) | GI50 (LOX IMVI) | GI50 (SN12C) | GI50 (NCI-H460) | GI50 (SNB-19) | GI50 (CCRF-CEM) | GI50 (HOP-92) | GI50 (A498) |
| --- | --- | --- | --- | --- | --- | --- | --- | --- | --- | --- | --- | --- | --- | --- | --- | --- | --- | --- | --- |
| Cc1cc2c(nn1)CCc1c-2no[n+]1[O-] | > 100 µM (inactive) | > 100 µM (inactive) | > 100 µM (inactive) | > 100 µM (inactive) | > 100 µM (inactive) | > 100 µM (inactive) | > 100 µM (inactive) | > 100 µM (inactive) | 22.1 µM (inactive) | > 100 µM (inactive) | > 100 µM (inactive) | > 100 µM (inactive) | > 100 µM (inactive) | > 100 µM (inactive) | > 100 µM (inactive) | > 100 µM (inactive) | > 100 µM (inactive) |  |  |
| O=C(O)c1cccc(S(=O)(=O)NCCO)c1 | > 100 µM (inactive) | > 100 µM (inactive) | > 100 µM (inactive) | > 100 µM (inactive) | > 100 µM (inactive) | > 100 µM (inactive) | > 100 µM (inactive) | > 100 µM (inactive) | > 100 µM (inactive) | > 100 µM (inactive) |  | > 100 µM (inactive) | > 100 µM (inactive) | > 100 µM (inactive) | > 100 µM (inactive) | > 100 µM (inactive) | > 100 µM (inactive) | > 100 µM (inactive) | > 100 µM (inactive) |
| O=C(Cc1ccccc1)N/N=C1\C(=O)Nc2ccccc21 | > 100 µM (inactive) |  | > 100 µM (inactive) | > 100 µM (inactive) | > 100 µM (inactive) | 71.9 µM (inactive) | > 100 µM (inactive) | > 100 µM (inactive) | > 100 µM (inactive) | > 100 µM (inactive) | > 100 µM (inactive) |  |  | 48.5 µM (inactive) | > 100 µM (inactive) | > 100 µM (inactive) | > 100 µM (inactive) |  | 0.229 µM (active) |
| O=c1cc(NNc2ccc3ccccc3c2)[nH]c(=S)[nH]1 | > 100 µM (inactive) | 18.2 µM (inactive) | 29.7 µM (inactive) | 23.2 µM (inactive) | 27.4 µM (inactive) | > 100 µM (inactive) | 39.6 µM (inactive) | 22.5 µM (inactive) |  | > 100 µM (inactive) | 24 µM (inactive) | 22.2 µM (inactive) | 13 µM (inactive) | 34.8 µM (inactive) | 40.9 µM (inactive) | 94.8 µM (inactive) |  | 28.1 µM (inactive) | > 100 µM (inactive) |
| Cc1ccc(S(=O)(=O)ON2C(=O)c3cccc4cc([N+](=O)[O-])cc(c34)C2=O)cc1 | > 100 µM (inactive) | 66.1 µM (inactive) | 26.7 µM (inactive) | 81.5 µM (inactive) | > 100 µM (inactive) | 54.8 µM (inactive) | 27 µM (inactive) | 40.6 µM (inactive) | 44.3 µM (inactive) | > 100 µM (inactive) | 23.8 µM (inactive) | > 100 µM (inactive) | 32 µM (inactive) | 81.3 µM (inactive) | 19.6 µM (inactive) | 57.8 µM (inactive) |  | 50.5 µM (inactive) |  |
| COc1cccc2c1CCc1c(-c3ccc(F)cc3)cc(-c3ccc4ccccc4n3)nc1-2 | > 100 µM (inactive) | > 100 µM (inactive) | > 100 µM (inactive) | > 100 µM (inactive) | > 100 µM (inactive) | > 100 µM (inactive) | > 100 µM (inactive) | > 100 µM (inactive) | > 100 µM (inactive) | > 100 µM (inactive) |  | > 100 µM (inactive) | > 100 µM (inactive) |  | > 100 µM (inactive) | > 100 µM (inactive) | > 100 µM (inactive) | > 100 µM (inactive) | > 100 µM (inactive) |
| OC(c1ccc(-c2ccccc2)cc1)(c1ccc(-c2ccccc2)cc1)c1ccc(-c2ccccc2)cc1 | > 100 µM (inactive) |  | > 100 µM (inactive) | > 100 µM (inactive) | > 100 µM (inactive) |  | > 100 µM (inactive) | > 100 µM (inactive) | > 100 µM (inactive) | > 100 µM (inactive) |  | > 100 µM (inactive) | > 100 µM (inactive) | > 100 µM (inactive) | > 100 µM (inactive) | > 100 µM (inactive) | > 10 µM (inactive) |  |  |
| COc1ccc(C2C3=C(Nc4ncnn42)c2ccccc2OC3c2ccccc2)cc1 (stereo not given) | 14.9 µM (inactive) | 41.7 µM (inactive) | 8.47 µM (inactive) | 23.7 µM (inactive) | > 100 µM (inactive) |  | 5.26 µM (inactive) | 27.1 µM (inactive) | 1.14 µM (inactive) | 89.1 µM (inactive) |  |  | 61.8 µM (inactive) | > 100 µM (inactive) | 27.2 µM (inactive) | > 100 µM (inactive) |  |  | 1.03 µM (active) |
| COc1ccc(/C(C)=N/OC(=O)c2c(-c3ccccc3Cl)noc2C)cc1CN1CCOCC1 | 19.1 µM (inactive) | 43.1 µM (inactive) | 25 µM (inactive) | 16.2 µM (inactive) | 19.1 µM (inactive) | 88.1 µM (inactive) | 22.2 µM (inactive) | 21.1 µM (inactive) | 26.3 µM (inactive) | 12.8 µM (inactive) | 30.5 µM (inactive) | 26.1 µM (inactive) | 14.9 µM (inactive) | 18.7 µM (inactive) | 29 µM (inactive) | 16.2 µM (inactive) | 66.7 µM (inactive) | 24.2 µM (inactive) |  |
| CC(=O)Oc1ccc2cc(-c3ccc(OC(C)=O)c(OC(C)=O)c3)c(=O)oc2c1 | 73.6 µM (inactive) | > 100 µM (inactive) | 87.7 µM (inactive) | > 100 µM (inactive) | > 100 µM (inactive) | > 100 µM (inactive) | 42.3 µM (inactive) |  |  | > 100 µM (inactive) | > 100 µM (inactive) | 39.3 µM (inactive) | > 100 µM (inactive) | > 100 µM (inactive) | 85.9 µM (inactive) | > 100 µM (inactive) | 42.1 µM (inactive) | 43.4 µM (inactive) | 34.4 µM (inactive) |
| O=C(CN1CCCCC1)c1ccc2[nH]c(=O)oc2c1 |  | > 100 µM (inactive) | > 100 µM (inactive) | > 100 µM (inactive) | > 100 µM (inactive) | > 100 µM (inactive) | > 100 µM (inactive) | > 100 µM (inactive) | > 100 µM (inactive) | > 100 µM (inactive) |  | > 100 µM (inactive) | > 100 µM (inactive) | > 100 µM (inactive) | > 100 µM (inactive) | > 100 µM (inactive) | > 100 µM (inactive) |  | > 100 µM (inactive) |
| C[C@H]1CC[C@@]2(NC1)O[C@H]1C[C@H]3[C@@H]4CC[C@H]5C[C@@H](O)CC[C@]5(C)[C@H]4CC[C@]3(C)[C@H]1[C@@H]2C | > 100 µM (inactive) |  | 22.9 µM (inactive) | > 100 µM (inactive) | 18.7 µM (inactive) | > 100 µM (inactive) | > 100 µM (inactive) | 71.6 µM (inactive) |  | > 100 µM (inactive) | > 100 µM (inactive) | > 100 µM (inactive) | 45.3 µM (inactive) | > 100 µM (inactive) | 33.4 µM (inactive) | > 100 µM (inactive) | > 100 µM (inactive) | 52.6 µM (inactive) | 77.8 µM (inactive) |
| O=C(CCCNc1nc(-c2ccccc2)cs1)c1cccs1 | > 100 µM (inactive) | > 100 µM (inactive) | > 100 µM (inactive) | > 100 µM (inactive) | > 100 µM (inactive) | > 100 µM (inactive) | > 100 µM (inactive) | > 100 µM (inactive) |  | > 100 µM (inactive) | > 100 µM (inactive) | > 100 µM (inactive) | > 100 µM (inactive) | > 100 µM (inactive) | > 100 µM (inactive) | > 100 µM (inactive) |  |  |  |
| Clc1ccc(Cc2nc3cc(CCN4CCN(c5ccccc5)CC4)ccc3[nH]2)cc1 | 13.4 µM (inactive) | > 100 µM (inactive) | 8.02 µM (inactive) | 4.06 µM (inactive) | 15.4 µM (inactive) | 22.5 µM (inactive) | 16.4 µM (inactive) | 27.5 µM (inactive) | 5.24 µM (inactive) | 26.1 µM (inactive) |  | 4.6 µM (inactive) | 12.6 µM (inactive) | 16 µM (inactive) | 12.9 µM (inactive) | 20.7 µM (inactive) | > 100 µM (inactive) | 21 µM (inactive) | 14.4 µM (inactive) |
| Cc1cccc(/C=C2\CCCCCC2=O)c1 | > 100 µM (inactive) | > 100 µM (inactive) | > 100 µM (inactive) | > 100 µM (inactive) | > 100 µM (inactive) | > 100 µM (inactive) | > 100 µM (inactive) | > 100 µM (inactive) |  | > 100 µM (inactive) | > 100 µM (inactive) | 60.5 µM (inactive) | > 100 µM (inactive) | > 100 µM (inactive) | 99.8 µM (inactive) | > 100 µM (inactive) | 28.8 µM (inactive) | > 100 µM (inactive) | > 100 µM (inactive) |
| Oc1cc(-c2ccc3ccccc3c2)nc2ncccc12 | 4.68 µM (inactive) | 5.18 µM (inactive) | 2.14 µM (inactive) | 4.05 µM (inactive) | 21.7 µM (inactive) | 23 µM (inactive) | 9.93 µM (inactive) | 6.4 µM (inactive) |  | 31.3 µM (inactive) | 9.4 µM (inactive) | 3.15 µM (inactive) | 9.93 µM (inactive) | 23.6 µM (inactive) |  | 17.8 µM (inactive) | 7.64 µM (inactive) | 8.34 µM (inactive) | 7.23 µM (inactive) |

Source: ChEMBL document CHEMBL1201862, “PubChem BioAssay data set” (2004)
